Like-named read-outs stand apart in the source and are kept apart here. *1 amine or outer side, *2 acyl side, *3 side chain or, on linkers, in order; H or OH if unused. Where a SMILES comes first, the peptide text is derived from it. Side-chain parts run from the residue outwards. [ ]: non-standard residue; d: D form. The star is where a group is joined. Ala(piperidin-4-yl) = O=C([C@H](CC1CCN([*:3])CC1)N[*:1])[*:2]; dTrp(5-OMe) = COc1ccc2[nH]cc(C[C@@H](N)C(=O)O)c2c1; dTrp(4-Me) = Cc1cccc2[nH]cc(C[C@@H](N)C(=O)O)c12; dTrp(5-Me) = Cc1ccc2[nH]cc(C[C@@H](N)C(=O)O)c2c1; Ala(piperazin-1-yl) = N[C@@H](CN1CCNCC1)C(=O)O; Phe(3-Br) = N[C@@H](Cc1cccc(Br)c1)C(=O)O; Phe(3-Cl) = N[C@@H](Cc1cccc(Cl)c1)C(=O)O; Phe(3-OMe) = COc1cccc(C[C@H](N)C(=O)O)c1; Phe(4-Cl) = N[C@@H](Cc1ccc(Cl)cc1)C(=O)O; Ethylenediamine = C(CN[*:2])N[*:1]; d(hPhe) = N[C@H](CCc1ccccc1)C(=O)O; Hyp = O=C(O)[C@@H]1C[C@@H](O)CN1; hPhe = N[C@@H](CCc1ccccc1)C(=O)O; 3Pal = N[C@@H](Cc1cccnc1)C(=O)O; Benzyl(4-Cl) = Clc1ccc(C*)cc1; Phg = N[C@H](C(=O)O)c1ccccc1; CO = O=C([*:1])[*:2]; Bn = c1ccc(C*)cc1

One test has as its target SST5 (Homo sapiens, UniProt P35346). In words: Hit Hunter cAMP XS+ assay, SST5 activation via Gi (reduction of forskolin-stimulated cAMP). Format: cell-based. Conditions: for Emax: read-out: SST5 (EMax); for SST5/2 Selectivity: selectivity for SST5 over SST2. The procedure:
(§1) A Hit Hunter® cAMP XS+ assay was used to monitor activation of the SST2 and SST5 via the Gi G protein. Cells were pre-stimulated with forskolin to elicit a cAMP response and the potency and efficacy of somatostatin agonists to reduce cAMP was measured. Briefly cells (10,000 cells/well) were incubated (37° C.; 30 min) with compound ([…]) in media (2:1 HBSS/11 mM Hepes: cAMP XS+Ab reagent) in the presence of EC80 forskolin ([…] and 15 μM SST5). Signal was detected through incubation with 20 μL cAMP XS+ED/CL lysis cocktail ([…]; RT) followed by incubation with […] cAMP XS+EA reagent (180 min; RT). Microplates were read with a PerkinElmer Envision™ instrument for chemiluminescent signal detection.

For the next test, the target named is SST2 (Homo sapiens, UniProt P30874). Nature of the test: Hit Hunter cAMP XS+ assay, SST2 activation via Gi (reduction of forskolin-stimulated cAMP). Conditions: for Emax: read-out: SST2 (EMax). Format: cell-based. The procedure: as §1
Sequence of SST2 (P30874 whole entry): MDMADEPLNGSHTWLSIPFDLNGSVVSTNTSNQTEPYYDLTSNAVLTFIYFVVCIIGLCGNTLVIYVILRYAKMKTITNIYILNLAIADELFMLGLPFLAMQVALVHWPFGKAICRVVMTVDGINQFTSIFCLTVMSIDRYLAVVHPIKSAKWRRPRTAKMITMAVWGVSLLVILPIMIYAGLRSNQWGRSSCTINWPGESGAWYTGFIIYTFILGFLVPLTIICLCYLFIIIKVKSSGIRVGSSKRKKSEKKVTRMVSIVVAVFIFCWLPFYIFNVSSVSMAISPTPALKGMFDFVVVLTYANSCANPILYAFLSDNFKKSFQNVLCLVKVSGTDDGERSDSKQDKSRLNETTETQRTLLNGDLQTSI
The mark [1] stands for this setting: reduction of forskolin-stimulated cAMP, 4-parameter logistic fit, read-out: SST5 pEC50 (converted).
Setting [2] is: reduction of forskolin-stimulated cAMP, 4-parameter logistic fit, read-out: SST2 pEC50 (converted).

Sequence of SST5 (P35346 whole entry): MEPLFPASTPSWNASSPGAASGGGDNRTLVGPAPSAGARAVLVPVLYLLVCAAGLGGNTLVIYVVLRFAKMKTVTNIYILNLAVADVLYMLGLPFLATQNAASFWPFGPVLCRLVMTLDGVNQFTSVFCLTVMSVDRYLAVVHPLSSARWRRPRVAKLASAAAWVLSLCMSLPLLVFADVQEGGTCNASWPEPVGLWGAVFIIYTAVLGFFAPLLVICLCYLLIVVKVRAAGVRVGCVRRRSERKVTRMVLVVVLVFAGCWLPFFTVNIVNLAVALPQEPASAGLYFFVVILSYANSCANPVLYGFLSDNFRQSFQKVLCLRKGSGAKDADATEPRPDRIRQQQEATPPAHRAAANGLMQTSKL

A word on the Emax: it is the size of the effect at its maximum, as opposed to the concentration needed. For `NCCNC(=O)O[C@@H]1C[C@H]2C(=O)N[C@@H](c3ccccc3)C(=O)N[C@H](Cc3c[nH]c4ccccc34)C(=O)N[C@@H](CC3CCNCC3)C(=O)N[C@@H](Cc3ccc(OCc4ccccc4)cc3)C(=O)N[C@@H](Cc3ccccc3)C(=O)N2C1` [Example 1] (cyclo(F[Hyp]([CO-Ethylenediamine])[Phg][dW][Ala(piperidin-4-yl)]Y(Bn))), at SST5, the EC50 was 25.1 nM, the Emax was 98.6% and the “SST5/2 Selectivity” value worked out at 130.7. For the same compound, at SST2, the EC50 is 3160 nM and the Emax turned out to be 62%.

Regarding `NCCNC(=O)O[C@@H]1C[C@H]2C(=O)N[C@@H](Cc3ccccc3)C(=O)N[C@H](Cc3c[nH]c4ccccc34)C(=O)N[C@@H](CC3CCNCC3)C(=O)N[C@@H](Cc3ccc(OCc4ccccc4)cc3)C(=O)N[C@@H](Cc3ccccc3)C(=O)N2C1` [Example 2] (cyclo(F[Hyp]([CO-Ethylenediamine])F[dW][Ala(piperidin-4-yl)]Y(Bn))), at SST5, the EC50 is 20 nM, the maximal effect (Emax) stood at 105% and the “SST5/2 Selectivity” value is listed as 21.9. At SST2, the EC50 is 398 nM and the Emax was found to be 96.4%.

Consider `NCCNC(=O)O[C@@H]1C[C@H]2C(=O)N[C@@H](CCc3ccccc3)C(=O)N[C@H](Cc3c[nH]c4ccccc34)C(=O)N[C@@H](CC3CCNCC3)C(=O)N[C@@H](Cc3ccc(OCc4ccccc4)cc3)C(=O)N[C@@H](Cc3cccnc3)C(=O)N2C1` [Example 3] (cyclo([3Pal][Hyp]([CO-Ethylenediamine])[hPhe][dW][Ala(piperidin-4-yl)]Y(Bn))), for which, at SST5, the EC50 is 0.794 nM, the Emax amounted to 100% and the “SST5/2 Selectivity” value is 236.7. In addition, at SST2, the EC50 was 200 nM and the Emax came to 98.4%.

`Cc1cccc2[nH]cc(C[C@H]3NC(=O)[C@H](c4ccccc4)NC(=O)[C@@H]4C[C@@H](OC(=O)NCCN)CN4C(=O)[C@H](Cc4ccccc4)NC(=O)[C@H](Cc4ccc(OCc5ccccc5)cc4)NC(=O)[C@H](CC4CCNCC4)NC3=O)c12` [Example 4] (cyclo(F[Hyp]([CO-Ethylenediamine])[Phg][dTrp(4-Me)][Ala(piperidin-4-yl)]Y(Bn))): on SST5, the EC50 was 12.6 nM, the Emax was 105% and the “SST5/2 Selectivity” value stood at 23.6. Besides, on SST2, the EC50 was 251 nM and the Emax came to 103%.

In the case of `COc1ccc2[nH]cc(C[C@H]3NC(=O)[C@H](c4ccccc4)NC(=O)[C@@H]4C[C@@H](OC(=O)NCCN)CN4C(=O)[C@H](Cc4ccccc4)NC(=O)[C@H](Cc4ccc(OCc5ccccc5)cc4)NC(=O)[C@H](CC4CCNCC4)NC3=O)c2c1` [Example 5] (cyclo(F[Hyp]([CO-Ethylenediamine])[Phg][dTrp(5-OMe)][Ala(piperidin-4-yl)]Y(Bn))), the maximal response (Emax) on SST5 is 98.7%; on SST2, 97.6%. Moreover, the EC50 was 10 nM at SST5 (setting [1]) and 316 nM on SST2 (setting [2]). Also, on SST5, the “SST5/2 Selectivity” value is 33.8.

For the compound `NCCNC(=O)O[C@@H]1C[C@H]2C(=O)N[C@@H](c3ccccc3)C(=O)N[C@H](Cc3c[nH]c4ccccc34)C(=O)N[C@@H](CC3CCNCC3)C(=O)N[C@@H](Cc3ccc(OCc4ccc(Cl)cc4)cc3)C(=O)N[C@@H](Cc3ccccc3)C(=O)N2C1` [Example 6] (cyclo(F[Hyp]([CO-Ethylenediamine])[Phg][dW][Ala(piperidin-4-yl)]Y(Benzyl(4-Cl)))), the Emax at SST5 and on SST2 was 97.9% throughout. Further, the EC50 on SST5 (setting [1]) was 1.26 nM; at SST2 (setting [2]) it was 50.1 nM. For the same compound, the “SST5/2 Selectivity” value on SST5 was determined as 41.9.

For the compound `NCCNC(=O)O[C@@H]1C[C@H]2C(=O)N[C@@H](c3ccccc3)C(=O)N[C@H](Cc3c[nH]c4ccccc34)C(=O)N[C@@H](CC3CCNCC3)C(=O)N[C@@H](Cc3ccc(OCc4ccccc4)cc3)C(=O)N[C@@H](Cc3cccc(Cl)c3)C(=O)N2C1` [Example 7] (cyclo([Hyp]([CO-Ethylenediamine])[Phg][dW][Ala(piperidin-4-yl)]Y(Bn)[Phe(3-Cl)])), the Emax came out at 102% on SST5 and 99.2% on SST2. The EC50 on SST5 (setting [1]) was 0.501 nM; on SST2 (setting [2]) it was 10 nM. Also, the “SST5/2 Selectivity” value at SST5 is listed as 19.3.

For `NCCNC(=O)O[C@@H]1C[C@H]2C(=O)N[C@@H](c3ccccc3)C(=O)N[C@H](Cc3c[nH]c4ccccc34)C(=O)N[C@@H](CC3CCNCC3)C(=O)N[C@@H](Cc3ccc(OCc4ccccc4)cc3)C(=O)N[C@@H](Cc3ccc(Cl)cc3)C(=O)N2C1` [Example 8] (cyclo([Hyp]([CO-Ethylenediamine])[Phg][dW][Ala(piperidin-4-yl)]Y(Bn)[Phe(4-Cl)])), the Emax at SST5 stood at 102%; on SST2, 101%. Besides, the EC50 at SST5 (setting [1]) was 1.26 nM; at SST2 (setting [2]) it was 31.6 nM. For the same compound, on SST5, the “SST5/2 Selectivity” value amounted to 22.7.

Regarding `COc1ccc(C[C@@H]2NC(=O)[C@H](Cc3ccc(OCc4ccccc4)cc3)NC(=O)[C@H](CC3CCNCC3)NC(=O)[C@@H](Cc3c[nH]c4ccccc34)NC(=O)[C@H](c3ccccc3)NC(=O)[C@@H]3C[C@@H](OC(=O)NCCN)CN3C2=O)cc1` [Example 9] (cyclo([Hyp]([CO-Ethylenediamine])[Phg][dW][Ala(piperidin-4-yl)]Y(Bn)Y(Me))), the Emax on SST5 is 106%; on SST2 it was 102%. In addition, the EC50 was 2.51 nM at SST5 (setting [1]) and 50.1 nM on SST2 (setting [2]). In addition, the “SST5/2 Selectivity” value at SST5 is 23.3.

`NCCNC(=O)O[C@@H]1C[C@H]2C(=O)N[C@@H](c3ccccc3)C(=O)N[C@H](Cc3c[nH]c4ccccc34)C(=O)N[C@@H](CC3CCNCC3)C(=O)N[C@@H](Cc3ccc(OCc4ccccc4)cc3)C(=O)N[C@@H](Cc3cccc(Br)c3)C(=O)N2C1` [Example 10] (cyclo([Hyp]([CO-Ethylenediamine])[Phg][dW][Ala(piperidin-4-yl)]Y(Bn)[Phe(3-Br)])): the Emax at SST5 was 98%; at SST2, 101%. Further, the EC50 was 0.501 nM on SST5 (setting [1]) and 20 nM on SST2 (setting [2]). Moreover, the “SST5/2 Selectivity” value at SST5 stood at 38.9.

Turning to `NCCNC(=O)O[C@@H]1C[C@H]2C(=O)N[C@@H](c3ccccc3)C(=O)N[C@H](Cc3c[nH]c4ccccc34)C(=O)N[C@@H](CC3CCNCC3)C(=O)N[C@@H](Cc3ccc(OCc4ccccc4)cc3)C(=O)N[C@@H](Cc3cccnc3)C(=O)N2C1` [Example 11] (cyclo([3Pal][Hyp]([CO-Ethylenediamine])[Phg][dW][Ala(piperidin-4-yl)]Y(Bn))), the results for the maximal effect (Emax) on SST5 and on SST2 were 99.4% and 98%, respectively. Besides, the EC50 at SST5 (setting [1]) is 3.98 nM; on SST2 (setting [2]), 200 nM. For the same compound, at SST5, the “SST5/2 Selectivity” value is 48.2.

In the case of `COc1cccc(C[C@@H]2NC(=O)[C@H](Cc3ccc(OCc4ccccc4)cc3)NC(=O)[C@H](CC3CCNCC3)NC(=O)[C@@H](Cc3c[nH]c4ccccc34)NC(=O)[C@H](c3ccccc3)NC(=O)[C@@H]3C[C@@H](OC(=O)NCCN)CN3C2=O)c1` [Example 12] (cyclo([Hyp]([CO-Ethylenediamine])[Phg][dW][Ala(piperidin-4-yl)]Y(Bn)[Phe(3-OMe)])), the values for the Emax on SST5 and at SST2 were 98.1% and 97.6%, respectively. In addition, the EC50 is 0.794 nM at SST5 (setting [1]) and 20 nM at SST2 (setting [2]). Moreover, the “SST5/2 Selectivity” value at SST5 is listed as 26.1.

For `Cc1ccc2[nH]cc(C[C@H]3NC(=O)[C@H](c4ccccc4)NC(=O)[C@@H]4C[C@@H](OC(=O)NCCN)CN4C(=O)[C@H](Cc4ccccc4)NC(=O)[C@H](Cc4ccc(OCc5ccccc5)cc4)NC(=O)[C@H](CC4CCNCC4)NC3=O)c2c1` [Example 13] (cyclo(F[Hyp]([CO-Ethylenediamine])[Phg][dTrp(5-Me)][Ala(piperidin-4-yl)]Y(Bn))), the Emax was determined as 98.7% at SST5 and 97.6% on SST2. In addition, the values for the EC50 at SST5 (setting [1]) and at SST2 (setting [2]) were 2.51 nM and 200 nM, respectively. The “SST5/2 Selectivity” value at SST5 was determined as 87.2.

As to `NCCNC(=O)O[C@@H]1C[C@H]2C(=O)N[C@@H](CCc3ccccc3)C(=O)N[C@H](Cc3c[nH]c4ccccc34)C(=O)N[C@@H](CN3CCNCC3)C(=O)N[C@@H](Cc3ccc(OCc4ccccc4)cc3)C(=O)N[C@@H](Cc3cccnc3)C(=O)N2C1` [Example 14] (cyclo([3Pal][Hyp]([CO-Ethylenediamine])[hPhe][dW][Ala(piperazin-1-yl)]Y(Bn))), the figures for the Emax at SST5 and at SST2 were 96.7% and 99.6%, respectively. The figures for the EC50 on SST5 (setting [1]) and on SST2 (setting [2]) were 0.0794 nM and 158 nM, respectively. Besides, the “SST5/2 Selectivity” value on SST5 is reported as 1876.8.

Take `NCCNC(=O)O[C@@H]1C[C@H]2C(=O)N[C@H](CCc3ccccc3)C(=O)N[C@H](Cc3c[nH]c4ccccc34)C(=O)N[C@@H](CC3CCNCC3)C(=O)N[C@@H](Cc3ccc(OCc4ccccc4)cc3)C(=O)N[C@@H](Cc3cccnc3)C(=O)N2C1` [Example 15] (cyclo([3Pal][Hyp]([CO-Ethylenediamine])[d(hPhe)][dW][Ala(piperidin-4-yl)]Y(Bn))): the results for the Emax on SST5 and on SST2 were 101% and 55.5%, respectively. Besides, the EC50 at SST5 (setting [1]) was 20 nM; at SST2 (setting [2]), over 10000 nM. In addition, the “SST5/2 Selectivity” value at SST5 stood at 531.3.

For the compound `C[C@@H](O)[C@@H]1NC(=O)[C@H](CCCCN)NC(=O)[C@@H](Cc2c[nH]c3ccccc23)NC(=O)[C@H](Cc2ccccc2)NC(=O)[C@@H](NC(=O)[C@H](N)Cc2ccccc2)CSSC[C@@H](C(=O)N[C@H](CO)[C@@H](C)O)NC1=O` [Octreotide], the maximal effect (Emax) on SST2 turned out to be 98.5%.

Values taken from patent US11987648B2, “Cyclohexapeptides as selective somatostatin SST5 receptor agonists” (Heptares Therapeutics Limited, priority 2018, dated 2024).
